Measured values as given in ChEMBL document CHEMBL1201862, “PubChem BioAssay data set” (2004).
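Where inhibition never reached the appropriate level, the endpoint shown equals the highest concentration tested. Otherwise, values were interpolated linearly from a five-concentration, 48-hour dose response in 96-well plates. GI50 marks 50% less growth.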 Activity calls are given as the source filed them. Cut-off read from the data, not from the text of the source: active = GI50 up to about 1.1 µM and inactive = higher.

Key:
Experiment in all cases: growth of human tumour cells (NCI), 48 h
ACHN = test system: ACHN
EKVX = test system: EKVX
UACC-62 = test system: UACC-62
HCT-116 = test system: HCT-116
786-0 = test system: 786-0
M14 = test system: M14
PC-3 = test system: PC-3
A549 = test system: A549
TK-10 = test system: TK-10
SK-MEL-2 = test system: SK-MEL-2
OVCAR-3 = test system: OVCAR-3
U-251 = test system: U-251
DU-145 = test system: DU-145
CAKI-1 = test system: CAKI-1
T47D = test system: T47D
NCI/ADR-RES = test system: NCI/ADR-RES
HCC 2998 = test system: HCC 2998
Hs-578T = test system: Hs-578T
UO-31 = test system: UO-31
NCI-H522 = test system: NCI-H522

Measured: GI50

Cc1ccc2c(c1)NC(c1ccc(C(=O)O)cc1)c1cccn1-2 (configuration not stated)
inactive: ACHN 19.3 µM | EKVX 22.1 µM | UACC-62 42.8 µM | HCT-116 47.9 µM | 786-0 19.3 µM | M14 46.8 µM | PC-3 32.7 µM | A549 36.3 µM | TK-10 30.8 µM | SK-MEL-2 43.9 µM | OVCAR-3 47.3 µM | U-251 30.9 µM | DU-145 26 µM | CAKI-1 15.6 µM | T47D 13.7 µM

CC1C2=C(O)CC(C)(C)CC2=NC2=C1C(=O)CC(C)(C)C2 (configuration not stated)
inactive: NCI/ADR-RES > 100 µM | HCC 2998 > 100 µM | ACHN > 100 µM | EKVX > 100 µM | UACC-62 > 100 µM | 786-0 > 100 µM | M14 > 100 µM | Hs-578T > 100 µM | PC-3 > 100 µM | A549 > 100 µM | TK-10 > 100 µM | OVCAR-3 > 100 µM | U-251 > 100 µM | CAKI-1 > 100 µM | UO-31 > 100 µM

O=[N+]([O-])c1ccc(Cl)c2c([N+](=O)[O-])cccc12
inactive: HCC 2998 > 10 µM | EKVX > 10 µM | UACC-62 5.46 µM | HCT-116 1.76 µM | 786-0 3.14 µM | PC-3 7.85 µM | A549 > 10 µM | TK-10 9.57 µM | SK-MEL-2 8.34 µM | OVCAR-3 3.49 µM | T47D 4.22 µM

CN(C)C1(N(C)C)Oc2c(c(=O)n(C)c(=O)n2C)C(c2ccc(C(F)(F)F)cc2)C1(F)F (configuration not stated)
inactive: NCI/ADR-RES > 100 µM | HCC 2998 > 100 µM | ACHN > 100 µM | EKVX > 100 µM | UACC-62 > 100 µM | HCT-116 > 100 µM | 786-0 > 100 µM | M14 > 100 µM | PC-3 > 100 µM | A549 > 100 µM | TK-10 > 100 µM | SK-MEL-2 > 100 µM | OVCAR-3 > 100 µM | U-251 > 100 µM | DU-145 > 100 µM | CAKI-1 > 100 µM | T47D > 100 µM | UO-31 > 100 µM

CC1(CCCCO)C=CC(S(=O)(=O)c2ccccc2)CC1 (configuration not stated)
inactive: NCI/ADR-RES 2.59 µM | HCC 2998 5.9 µM | ACHN 5.57 µM | EKVX 3.1 µM | UACC-62 6.15 µM | HCT-116 4.15 µM | 786-0 3.96 µM | M14 3.4 µM | PC-3 4.11 µM | A549 3.64 µM | TK-10 6.97 µM | SK-MEL-2 11.1 µM | NCI-H522 1.87 µM | OVCAR-3 6.17 µM | U-251 6.95 µM | DU-145 5.14 µM | CAKI-1 10.7 µM | UO-31 4.16 µM

CCOC(=O)CSc1[nH]c2nc(C)nc(Cl)c2c1C#N
inactive: HCC 2998 > 10 µM | EKVX > 10 µM | UACC-62 > 10 µM | 786-0 > 10 µM | M14 > 10 µM | PC-3 > 10 µM | A549 > 10 µM | TK-10 > 10 µM | DU-145 > 10 µM | CAKI-1 > 10 µM | T47D > 10 µM

COc1cc(/C=C2/SC(c3ccccc3)N(c3cc(Cl)ccc3Cl)C2=O)cc(OC)c1OC (configuration not stated)
inactive: NCI/ADR-RES 64.4 µM | HCC 2998 > 100 µM | ACHN > 100 µM | EKVX 84.9 µM | UACC-62 44.2 µM | HCT-116 46.3 µM | 786-0 > 100 µM | M14 50.9 µM | PC-3 65.5 µM | A549 > 100 µM | TK-10 > 100 µM | SK-MEL-2 > 100 µM | NCI-H522 47.1 µM | OVCAR-3 52.2 µM | U-251 63.4 µM | DU-145 > 100 µM | CAKI-1 23.2 µM | T47D 30.1 µM | UO-31 75.3 µM

Cc1ccc(NC(=O)C(=O)C(C(=O)c2ccc3ccccc3c2)C2OC(=O)c3ccccc32)cc1C (configuration not stated)
inactive: HCC 2998 2.77 µM | ACHN 32 µM | EKVX 63.5 µM | UACC-62 12.4 µM | HCT-116 11.8 µM | 786-0 10 µM | M14 15.6 µM | A549 16.5 µM | TK-10 34.8 µM | SK-MEL-2 15.5 µM | NCI-H522 3.03 µM | OVCAR-3 10.9 µM | U-251 3.92 µM | CAKI-1 8.57 µM | UO-31 11.9 µM

COC(=O)C(Cc1nc2ccccc2nc1O)C(=O)C(=O)Nc1ccc([N+](=O)[O-])cc1[N+](=O)[O-] (configuration not stated)
inactive: HCC 2998 18.1 µM | ACHN 18.2 µM | EKVX 20 µM | UACC-62 18.7 µM | HCT-116 21.2 µM | 786-0 16.5 µM | M14 17.8 µM | A549 34.1 µM | TK-10 26.4 µM | SK-MEL-2 20.7 µM | NCI-H522 6.22 µM | OVCAR-3 15.5 µM | U-251 17.1 µM | CAKI-1 32.4 µM | UO-31 20.6 µM
